Test results taken from ChEMBL document CHEMBL1148189, “New diterpenes from the gorgonian Solenopodium excavatum” (1993).
In brackets after ≈: the same amount, converted by molar mass. Activity calls are given as the source filed them. The rule behind the calls is not given here.

Each compound was assayed on P388 (assay: Cytotoxicity against mouse P388 cells). Conditions: not given.
Type: functional
`CCCC(=O)O[C@@H]1C/C(C)=C\[C@@H]2OC(=O)[C@]3(C)O[C@]23[C@H](OC(C)=O)[C@H]2[C@@]3(C)O[C@H]3[C@@H](O)[C@H](OC(C)=O)[C@]2(C)[C@H]1OC(C)=O` was tested, and the Activity was “inactive”.
`CC(=O)O[C@H]1C[C@@H](OC(C)=O)/C(C)=C\[C@@H]2OC(=O)[C@]3(C)O[C@]23[C@H](OC(C)=O)[C@H]2[C@@](C)(O)[C@H](OC(C)=O)C=C[C@]12C` was tested, and the Activity was “inactive”.
In the case of `CC(=O)O[C@@H]1[C@@H]2O[C@]2(C)[C@@H]2[C@@H](OC(C)=O)[C@]34O[C@@]3(C)C(=O)O[C@H]4/C=C(/C)C[C@@H](OC(C)=O)[C@H](OC(C)=O)[C@@]2(C)[C@H]1OC(C)=O`, the Activity is reported as “inactive”.
`CC(=O)O[C@@H]1[C@H]2[C@@H](C)[C@@H](O)[C@@H](O)[C@H](OC(C)=O)[C@]2(C)[C@@H](OC(C)=O)[C@H](OC(C)=O)C/C(C)=C\[C@@H]2OC(=O)[C@]3(C)O[C@@]213` was tested, and the Activity was “inactive”.
In the case of `CC(=O)O[C@@H]1[C@H]2[C@@]3(C)O[C@H]3[C@@H](O)[C@H](OC(C)=O)[C@]2(C)[C@@H](OC(C)=O)[C@H](OC(C)=O)C/C(C)=C\[C@@H]2OC(=O)[C@]3(C)O[C@@]213`, the Activity is reported as “inactive”.
In the case of `CC(=O)OC/C1=C/[C@@H]2OC(=O)[C@]3(C)O[C@]23[C@H](OC(C)=O)[C@H]2[C@@]3(C)O[C@H]3C[C@H](OC(C)=O)[C@]2(C)[C@@H](OC(C)=O)C[C@H]1OC(C)=O`, the Activity is reported as “inactive”.
With `CC(=O)O[C@@H]1[C@H]2C(C)=C[C@@H](O)[C@H](OC(C)=O)[C@]2(C)[C@@H](OC(C)=O)[C@H](OC(C)=O)C/C(C)=C\[C@@H]2OC(=O)[C@]3(C)O[C@@]213` the Activity was “inactive”.
With `CC(=O)O[C@H]1C[C@@H]2O[C@]2(C)[C@@H]2[C@@H](OC(C)=O)[C@]34O[C@@]3(C)C(=O)O[C@H]4/C=C(/CO)[C@H](OC(C)=O)C[C@H](OC(C)=O)[C@@]12C` the Activity was “inactive”.

Same assay, conditions: read-out: ED50 (the source's name)
Work on `CCCC(=O)O[C@@H]1C/C(C)=C\[C@@H]2OC(=O)[C@]3(C)O[C@]23[C@H](OC(C)=O)[C@H]2C(C)=C[C@@H](O)[C@H](OC(C)=O)[C@]2(C)[C@H]1OC(C)=O` [STECHOLIDE I] yielded an EC50 of 23 µg/mL (≈ 38.8 µM).
